This passage reports residual activity results from the kinase profiling compilation of Christmann-Franck et al. (2016).

What all share (assay): radiometric filter-binding kinase assay, Kinaseprofiler
Test [1] concerns BRSK2 (human), Q8IWQ3 [S251I]. The settings on record: ATP 70 µM.
The subject of test [2] is IRAK4 (human), Q9NWZ3 [A81V]. Conditions: ATP 200 µM.
Test [3] concerns SGK1 (human), O00141 [S422D]. Conditions: ATP 90 µM.
Test [4] relates to AXL (human), P30530 [Q764R]. The settings on record: ATP 90 µM.
Sequence of AXL (human), P30530 [Q764R] (P30530 whole entry Q764R, looked up): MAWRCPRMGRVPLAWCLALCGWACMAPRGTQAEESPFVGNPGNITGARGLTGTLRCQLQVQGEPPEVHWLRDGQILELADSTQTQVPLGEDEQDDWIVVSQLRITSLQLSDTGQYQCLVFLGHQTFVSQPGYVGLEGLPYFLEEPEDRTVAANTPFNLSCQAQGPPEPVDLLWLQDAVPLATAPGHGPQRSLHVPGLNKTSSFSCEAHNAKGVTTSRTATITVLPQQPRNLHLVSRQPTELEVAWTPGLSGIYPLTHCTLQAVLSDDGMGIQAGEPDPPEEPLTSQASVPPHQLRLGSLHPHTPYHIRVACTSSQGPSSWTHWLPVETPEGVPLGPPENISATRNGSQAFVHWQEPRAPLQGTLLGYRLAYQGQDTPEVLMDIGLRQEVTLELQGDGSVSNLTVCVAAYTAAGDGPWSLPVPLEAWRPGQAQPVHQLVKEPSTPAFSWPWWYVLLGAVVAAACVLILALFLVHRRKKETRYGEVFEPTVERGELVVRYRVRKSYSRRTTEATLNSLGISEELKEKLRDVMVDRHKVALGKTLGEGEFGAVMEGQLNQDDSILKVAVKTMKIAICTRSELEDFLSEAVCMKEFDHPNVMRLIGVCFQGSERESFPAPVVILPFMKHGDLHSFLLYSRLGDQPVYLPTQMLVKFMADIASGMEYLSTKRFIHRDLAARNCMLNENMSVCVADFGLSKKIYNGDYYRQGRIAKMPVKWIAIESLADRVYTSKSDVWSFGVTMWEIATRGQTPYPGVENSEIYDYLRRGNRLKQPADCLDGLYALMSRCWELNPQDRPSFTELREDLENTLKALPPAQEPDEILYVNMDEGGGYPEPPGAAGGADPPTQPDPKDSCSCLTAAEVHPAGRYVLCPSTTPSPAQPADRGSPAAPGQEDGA
Test [5] relates to RPS6KB1 (human), P23443 [T412E]. The settings on record: ATP 15 µM.
Sequence of RPS6KB1 (human), P23443 [T412E] (P23443 whole entry T412E, looked up): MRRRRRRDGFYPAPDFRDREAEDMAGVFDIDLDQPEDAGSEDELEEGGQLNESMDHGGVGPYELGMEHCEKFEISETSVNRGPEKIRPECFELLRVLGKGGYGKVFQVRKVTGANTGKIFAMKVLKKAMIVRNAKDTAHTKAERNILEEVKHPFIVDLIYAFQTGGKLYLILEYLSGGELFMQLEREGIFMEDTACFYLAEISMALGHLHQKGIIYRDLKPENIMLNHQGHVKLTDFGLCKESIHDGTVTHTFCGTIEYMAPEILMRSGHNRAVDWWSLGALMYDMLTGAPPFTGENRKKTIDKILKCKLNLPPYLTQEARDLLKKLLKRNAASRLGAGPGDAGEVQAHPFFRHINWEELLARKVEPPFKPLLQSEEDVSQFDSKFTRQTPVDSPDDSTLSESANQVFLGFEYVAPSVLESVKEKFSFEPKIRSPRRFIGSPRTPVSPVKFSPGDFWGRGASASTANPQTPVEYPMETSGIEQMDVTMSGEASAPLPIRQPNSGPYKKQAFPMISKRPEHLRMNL
A further test concerns the target IRAK1 (human) (UniProt P51617). The settings on record: compound 10.0 µM; ATP 45 µM.
The target of the next test is PTK2B (human) (UniProt Q14289). Conditions: compound 10.0 µM; ATP 90 µM.
A further test addresses CSNK1G1 (human) (UniProt Q9HCP0). The settings on record: compound 10.0 µM; ATP 15 µM.
Another test addresses MELK (human) (UniProt Q14680). The settings on record: compound 1.0 µM; ATP 45 µM.
Another test has as its target WNK2 (human) (UniProt Q9Y3S1). The settings on record: compound 10.0 µM; ATP 200 µM.
In the next test the target is STK24 (human) (UniProt Q9Y6E0). The settings on record: compound 1.0 µM; ATP 15 µM.
Another test has as its target PASK (human) (UniProt Q96RG2). The settings on record: compound 10.0 µM; ATP 15 µM.
For the next test, the target named is CHEK1 (human) (UniProt O14757). Conditions: compound 10.0 µM; ATP 90 µM.
Another test has as its system CSNK1D (rat). Conditions: compound 10.0 µM; accession and sequence are those of the human protein.
The next test deals with FLT3 (human) (UniProt P36888). Conditions: ATP 200 µM.
Sequence of FLT3 (human) (P36888 whole entry, looked up): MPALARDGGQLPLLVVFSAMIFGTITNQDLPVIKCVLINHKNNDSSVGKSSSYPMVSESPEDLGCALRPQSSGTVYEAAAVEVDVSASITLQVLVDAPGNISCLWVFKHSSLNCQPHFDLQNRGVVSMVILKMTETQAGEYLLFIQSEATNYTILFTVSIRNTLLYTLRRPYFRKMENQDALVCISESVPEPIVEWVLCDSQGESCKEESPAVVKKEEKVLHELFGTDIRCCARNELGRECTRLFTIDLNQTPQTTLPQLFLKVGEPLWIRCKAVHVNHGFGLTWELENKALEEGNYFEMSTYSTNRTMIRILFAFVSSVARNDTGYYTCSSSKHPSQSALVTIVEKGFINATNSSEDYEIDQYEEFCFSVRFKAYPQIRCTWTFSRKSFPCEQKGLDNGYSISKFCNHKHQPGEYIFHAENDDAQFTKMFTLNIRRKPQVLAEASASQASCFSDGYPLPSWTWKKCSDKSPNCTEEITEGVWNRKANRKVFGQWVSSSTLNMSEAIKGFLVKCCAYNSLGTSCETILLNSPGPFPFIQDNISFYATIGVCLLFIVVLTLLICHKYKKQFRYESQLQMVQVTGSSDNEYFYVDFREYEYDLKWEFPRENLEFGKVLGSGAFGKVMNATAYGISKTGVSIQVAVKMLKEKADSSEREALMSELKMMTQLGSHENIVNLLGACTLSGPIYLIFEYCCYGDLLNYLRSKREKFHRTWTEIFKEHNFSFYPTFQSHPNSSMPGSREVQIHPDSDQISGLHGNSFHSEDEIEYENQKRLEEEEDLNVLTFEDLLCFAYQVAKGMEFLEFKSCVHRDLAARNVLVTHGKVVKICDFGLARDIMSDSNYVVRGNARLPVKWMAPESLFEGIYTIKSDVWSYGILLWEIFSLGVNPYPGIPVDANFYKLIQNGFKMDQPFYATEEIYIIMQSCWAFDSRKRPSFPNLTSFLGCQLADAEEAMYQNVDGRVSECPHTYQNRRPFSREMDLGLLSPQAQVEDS
A further test concerns the target FER (human) (UniProt P16591). The settings on record: compound 10.0 µM; ATP 70 µM.
In another test the target is TLK2 (human) (UniProt Q86UE8). The settings on record: ATP 10 µM.
In the next test the target is INSR (human) (UniProt P06213). The settings on record: compound 1.0 µM; ATP 200 µM.
The target of a further test is NTRK2 (human) (UniProt Q16620). Conditions: ATP 90 µM.
The target of a further test is MTOR FKBP1A (human) (UniProt P42345+P62942). The settings on record: compound 10.0 µM; ATP 45 µM.
The next test deals with FGR (human) (UniProt P09769). Conditions: compound 1.0 µM; ATP 45 µM.
The next test has as its target PAK7 (human) (UniProt Q9P286). The settings on record: compound 10.0 µM; ATP 15 µM.
The next test has as its target MAP2K1 (human) (UniProt Q02750). Conditions: compound 1.0 µM; ATP 10 µM.
The target in the next test is PRKACA (human) (UniProt P17612). Conditions: compound 1.0 µM; ATP 10 µM.
Test [6] has as its target CSNK2A1 CSNK2B CSNK2A2 (human) (UniProt P19784+P68400+P67870). The settings on record: compound 10.0 µM; ATP 15 µM.
A further test concerns the target EPHA8 (human) (UniProt P29322). The settings on record: compound 1.0 µM; ATP 200 µM.
The target of the next test is MAPK3 (human) (UniProt P27361). Conditions: compound 1.0 µM; ATP 70 µM.
The target of the next test is TXK (human) (UniProt P42681). The settings on record: compound 1.0 µM; ATP 200 µM.
The target in the next test is STK17A (human) (UniProt Q9UEE5). The settings on record: compound 10.0 µM; ATP 10 µM.
The target of a further test is PLK3 (human) (UniProt Q9H4B4). Conditions: compound 10.0 µM; ATP 70 µM.
A further test has as its target MAPKAPK3 (human) (UniProt Q16644). Conditions: compound 10.0 µM; ATP 90 µM.
For another test, the target named is SRC (human) (UniProt P12931). Conditions: compound 10.0 µM; ATP 200 µM.
The target of a further test is STK4 (human) (UniProt Q13043). Conditions: compound 1.0 µM; ATP 90 µM.
A further test deals with PRKG1 (human) (UniProt Q13976). Conditions: compound 1.0 µM; ATP 90 µM.
Another test concerns the target RPS6KA4 KD1 KD2 (human) (UniProt O75676). Conditions: ATP 45 µM.
The next test addresses SRPK3 (human) (UniProt Q9UPE1). Conditions: compound 10.0 µM; ATP 15 µM.
The target of a further test is NLK (human) (UniProt Q9UBE8). The settings on record: compound 1.0 µM; ATP 200 µM.
The target of a further test is SRPK1 (human) (UniProt Q96SB4). Conditions: compound 10.0 µM; ATP 10 µM.
The next test deals with HIPK3 (human) (UniProt Q9H422). The settings on record: ATP 15 µM.
The next test deals with FYN (human) (UniProt P06241). Conditions: compound 1.0 µM; ATP 70 µM.
A further test addresses EPHB1 (human) (UniProt P54762). Conditions: compound 10.0 µM; ATP 200 µM.
For another test, the target named is ULK3 (human) (UniProt Q6PHR2). Conditions: compound 10.0 µM; ATP 10 µM.
The next test concerns the target NUAK1 (human) (UniProt O60285). Conditions: ATP 45 µM.
The next test has as its target TAOK1 (human) (UniProt Q7L7X3). Conditions: compound 1.0 µM; ATP 10 µM.
In a further test the target is KDR (human) (UniProt P35968). The settings on record: compound 10.0 µM; ATP 90 µM.
Test [7] concerns the target JAK2 JH1 catalytic (human) (UniProt O60674). Conditions: compound 1.0 µM; ATP 45 µM.
The next test concerns the target RPS6KA3 KD1 KD2 (human) (UniProt P51812). The settings on record: compound 1.0 µM; ATP 10 µM.
The next test has as its target CDC42BPA (human) (UniProt Q5VT25). The settings on record: compound 10.0 µM; ATP 45 µM.
In a further test the target is TNK2 (human) (UniProt Q07912). The settings on record: compound 1.0 µM; ATP 70 µM.
In a further test the target is PAK4 (human) (UniProt O96013). The settings on record: compound 10.0 µM; ATP 10 µM.
For the next test, the target named is MARK2 (human) (UniProt Q7KZI7). Conditions: compound 1.0 µM; ATP 15 µM.
The target of a further test is EPHA3 (human) (UniProt P29320). The settings on record: compound 1.0 µM; ATP 120 µM.
The next test has as its target PIM1 (human) (UniProt P11309). The settings on record: compound 10.0 µM; ATP 90 µM.
The next test addresses NTRK1 (human) (UniProt P04629). The settings on record: compound 1.0 µM; ATP 120 µM.
The target of the next test is AURKB (human) (UniProt Q96GD4). The settings on record: compound 10.0 µM; ATP 10 µM.
The target in the next test is EPHA1 (human) (UniProt P21709). The settings on record: compound 1.0 µM; ATP 45 µM.
A further test concerns the target CAMK2G (human) (UniProt Q13555). Conditions: compound 10.0 µM; ATP 10 µM.
Another test deals with RPS6KA5 KD1 KD2 (human) (UniProt O75582). The settings on record: compound 1.0 µM; ATP 90 µM.

Sequence of IRAK4 (human), Q9NWZ3 [A81V] (Q9NWZ3 whole entry, looked up, stated change not applied): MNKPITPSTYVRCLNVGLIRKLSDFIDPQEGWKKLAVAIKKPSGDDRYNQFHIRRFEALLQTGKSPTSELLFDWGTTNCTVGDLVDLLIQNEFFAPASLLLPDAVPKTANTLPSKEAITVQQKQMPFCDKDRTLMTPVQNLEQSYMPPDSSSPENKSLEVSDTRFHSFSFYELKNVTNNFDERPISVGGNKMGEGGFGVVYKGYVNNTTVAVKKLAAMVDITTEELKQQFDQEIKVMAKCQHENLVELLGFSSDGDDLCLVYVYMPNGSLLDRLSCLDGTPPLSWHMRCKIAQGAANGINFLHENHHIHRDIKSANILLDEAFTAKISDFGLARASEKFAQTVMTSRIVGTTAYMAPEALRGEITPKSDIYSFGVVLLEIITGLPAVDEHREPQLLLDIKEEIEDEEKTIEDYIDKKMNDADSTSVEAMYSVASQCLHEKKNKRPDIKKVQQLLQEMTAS
Sequence of BRSK2 (human), Q8IWQ3 [S251I] (Q8IWQ3 whole entry, looked up, stated change not applied): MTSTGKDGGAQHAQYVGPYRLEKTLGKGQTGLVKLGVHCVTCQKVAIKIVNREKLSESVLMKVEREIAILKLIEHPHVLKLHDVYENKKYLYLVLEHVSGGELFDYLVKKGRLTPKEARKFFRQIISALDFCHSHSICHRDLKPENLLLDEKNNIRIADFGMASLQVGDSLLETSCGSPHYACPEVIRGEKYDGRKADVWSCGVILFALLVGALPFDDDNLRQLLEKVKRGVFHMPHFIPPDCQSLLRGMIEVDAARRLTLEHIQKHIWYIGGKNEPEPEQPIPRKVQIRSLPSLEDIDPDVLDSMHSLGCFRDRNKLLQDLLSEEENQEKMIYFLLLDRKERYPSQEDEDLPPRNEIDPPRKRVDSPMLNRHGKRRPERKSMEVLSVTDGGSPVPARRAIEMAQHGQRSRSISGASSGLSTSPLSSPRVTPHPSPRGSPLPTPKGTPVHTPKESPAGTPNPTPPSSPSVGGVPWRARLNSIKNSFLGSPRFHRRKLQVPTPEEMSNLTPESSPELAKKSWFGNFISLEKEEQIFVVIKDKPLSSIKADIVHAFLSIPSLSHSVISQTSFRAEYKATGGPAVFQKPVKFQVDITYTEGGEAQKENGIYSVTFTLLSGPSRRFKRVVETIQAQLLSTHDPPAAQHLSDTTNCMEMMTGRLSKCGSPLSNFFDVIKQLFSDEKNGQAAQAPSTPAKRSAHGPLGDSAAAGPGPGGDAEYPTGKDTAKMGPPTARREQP
Sequence of NUAK1 (human) (O60285 whole entry, looked up): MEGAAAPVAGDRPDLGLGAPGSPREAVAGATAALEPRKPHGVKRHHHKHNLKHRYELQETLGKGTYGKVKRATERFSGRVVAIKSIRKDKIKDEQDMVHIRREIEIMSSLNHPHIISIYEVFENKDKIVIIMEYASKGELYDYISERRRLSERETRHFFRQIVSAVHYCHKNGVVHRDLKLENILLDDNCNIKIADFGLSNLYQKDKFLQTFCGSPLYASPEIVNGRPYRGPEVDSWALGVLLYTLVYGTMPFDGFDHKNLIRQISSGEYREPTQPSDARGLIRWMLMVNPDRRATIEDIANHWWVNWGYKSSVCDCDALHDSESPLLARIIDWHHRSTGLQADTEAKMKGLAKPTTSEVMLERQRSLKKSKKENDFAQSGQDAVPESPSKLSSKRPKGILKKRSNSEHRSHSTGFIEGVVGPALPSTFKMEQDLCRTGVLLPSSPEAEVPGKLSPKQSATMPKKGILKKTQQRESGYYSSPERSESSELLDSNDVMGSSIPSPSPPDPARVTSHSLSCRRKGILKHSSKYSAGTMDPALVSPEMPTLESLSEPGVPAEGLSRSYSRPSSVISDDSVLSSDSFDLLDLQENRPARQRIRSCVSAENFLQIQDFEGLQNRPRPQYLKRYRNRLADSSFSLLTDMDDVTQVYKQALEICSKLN
Sequence of RPS6KA4 KD1 KD2 (human) (O75676 whole entry, looked up): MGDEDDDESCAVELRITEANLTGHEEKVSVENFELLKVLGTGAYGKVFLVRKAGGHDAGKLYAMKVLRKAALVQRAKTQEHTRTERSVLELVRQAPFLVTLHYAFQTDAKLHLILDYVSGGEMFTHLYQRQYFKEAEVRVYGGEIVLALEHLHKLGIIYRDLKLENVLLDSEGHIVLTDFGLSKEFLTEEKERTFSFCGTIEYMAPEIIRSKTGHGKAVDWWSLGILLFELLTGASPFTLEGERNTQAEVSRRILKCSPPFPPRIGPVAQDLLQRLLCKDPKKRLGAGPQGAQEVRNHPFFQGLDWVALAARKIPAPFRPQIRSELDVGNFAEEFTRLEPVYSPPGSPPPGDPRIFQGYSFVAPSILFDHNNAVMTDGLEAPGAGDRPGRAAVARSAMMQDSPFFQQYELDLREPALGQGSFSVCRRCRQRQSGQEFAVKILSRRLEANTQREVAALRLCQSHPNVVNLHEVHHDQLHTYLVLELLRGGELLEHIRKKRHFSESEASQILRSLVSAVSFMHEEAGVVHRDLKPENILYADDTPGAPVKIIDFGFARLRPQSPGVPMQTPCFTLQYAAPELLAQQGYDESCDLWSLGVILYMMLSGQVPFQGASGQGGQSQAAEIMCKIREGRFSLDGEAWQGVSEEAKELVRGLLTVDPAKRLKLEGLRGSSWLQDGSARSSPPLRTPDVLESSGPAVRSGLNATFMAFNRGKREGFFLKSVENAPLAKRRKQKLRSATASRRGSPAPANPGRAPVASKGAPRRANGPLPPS

Take `O=C1c2ccccc2-c2n[nH]c3cccc1c23`: the residual activity in test [1] (compound 1.0 µM) was found to be 64%; in test [1] (compound 10.0 µM) it was 9%; in [2] (compound 1.0 µM) it was 36%; in test [2] (compound 10.0 µM) it was 11%; in [3] (compound 1.0 µM), 60%; in test [3] (compound 10.0 µM), 24%. Also, the residual activity in test [4] (compound 1.0 µM) came out at 50%; in test [4] (compound 10.0 µM) it was 17%; in test [5] (compound 1.0 µM) it was 55%; in test [5] (compound 10.0 µM), 14%.
On to `CN[C@@H]1C[C@H]2O[C@@](C)([C@@H]1OC)n1c3ccccc3c3c4c(c5c6ccccc6n2c5c31)C(=O)NC4`, for which the residual activity in test [1] (compound 10.0 µM) amounted to 0%; on IRAK1 (human), 0%; on PTK2B (human), 0%; in test [2] (compound 10.0 µM), 0%; on CSNK1G1 (human) it was 54%; at MELK (human) it was 0%. Besides, the residual activity was 37% at WNK2 (human); 0% at STK24 (human); 0% at PASK (human); 0% at CHEK1 (human); 52% in the test with CSNK1D (rat); 0% on FLT3 (human) (compound 1.0 µM). The residual activity at FLT3 (human) (compound 10.0 µM) was 0%; on FER (human) it was 0%; on TLK2 (human) (compound 1.0 µM), 0%; at TLK2 (human) (compound 10.0 µM) it was 0%; at INSR (human), 26%; at NTRK2 (human) (compound 1.0 µM), 0%. Besides, the residual activity came to 0% on NTRK2 (human) (compound 10.0 µM); 78% at MTOR FKBP1A (human); 0% on FGR (human); 0% at PAK7 (human); 0% at MAP2K1 (human); 0% on PRKACA (human). Further, the residual activity turned out to be 95% in test [6]; 26% at EPHA8 (human); 62% on MAPK3 (human); 24% at TXK (human); 0% on STK17A (human); 43% at PLK3 (human). Moreover, the residual activity on MAPKAPK3 (human) was 43%; on SRC (human), 0%; at STK4 (human) it was 0%; at PRKG1 (human) it was 0%; on RPS6KA4 KD1 KD2 (human) (compound 1.0 µM), 0%; on RPS6KA4 KD1 KD2 (human) (compound 10.0 µM), 0%. For the same molecule, the residual activity on SRPK3 (human) was 51%; at NLK (human) it was 26%; on SRPK1 (human), -4%; at HIPK3 (human) (compound 1.0 µM) it was 82%; at HIPK3 (human) (compound 10.0 µM), 34%; at FYN (human), 0%. Besides, the residual activity on EPHB1 (human), on ULK3 (human), on NUAK1 (human) (compound 1.0 µM) and on NUAK1 (human) (compound 10.0 µM) was 0% each time.
For the molecule `O=C(Nc1cccc(Nc2nccc(Nc3cccc(C(F)(F)F)c3)n2)c1)C1CC1`, the residual activity was 100% at TAOK1 (human); 24% at KDR (human); 17% in test [7]; 17% at RPS6KA3 KD1 KD2 (human); 147% at CDC42BPA (human); 24% at TNK2 (human). The residual activity at PAK4 (human) is 28%; at MARK2 (human), 100%; on EPHA3 (human), 100%; on PIM1 (human), 28%; at NTRK1 (human), 21%; at AURKB (human), -1%. Moreover, the residual activity worked out at 24% at EPHA1 (human), 21% on CAMK2G (human) and 100% at RPS6KA5 KD1 KD2 (human).
As to `COC(=O)[C@]1(O)C[C@@H]2O[C@@]1(C)n1c3ccccc3c3c4c(c5c6ccccc6n2c5c31)C(=O)NC4`, the residual activity in test [1] (compound 10.0 µM) is 0%; in [2] (compound 1.0 µM) it was -2%; in test [2] (compound 10.0 µM), 0%; in [4] (compound 10.0 µM), -3%.

In general, residual activity refers to the signal under treatment as a percentage of the control signal.
